Assay results as given in ChEMBL document CHEMBL1201862, “PubChem BioAssay data set” (2004).
Blank lines part the entries; values can stand above or below the compound they belong to. The source made the active and inactive calls.

What was measured:
[1] = target: Sphingosine 1-phosphate receptor 5 (Homo sapiens, UniProt Q9H228); assay: Late stage counterscreen assay for S1P4 antagonists: Fluorescence dose response cell-based screening assay for antagonists of the Sphingosine 1-Phosphate Receptor 5 (S1P5). [Related pubchem assays (depositor defined):AID1510, AID1524, AID1692, AID1853, AID2332, AID489009, AID489017]; assay type: functional
Chain of Sphingosine 1-phosphate receptor 5 (Q9H228 whole entry): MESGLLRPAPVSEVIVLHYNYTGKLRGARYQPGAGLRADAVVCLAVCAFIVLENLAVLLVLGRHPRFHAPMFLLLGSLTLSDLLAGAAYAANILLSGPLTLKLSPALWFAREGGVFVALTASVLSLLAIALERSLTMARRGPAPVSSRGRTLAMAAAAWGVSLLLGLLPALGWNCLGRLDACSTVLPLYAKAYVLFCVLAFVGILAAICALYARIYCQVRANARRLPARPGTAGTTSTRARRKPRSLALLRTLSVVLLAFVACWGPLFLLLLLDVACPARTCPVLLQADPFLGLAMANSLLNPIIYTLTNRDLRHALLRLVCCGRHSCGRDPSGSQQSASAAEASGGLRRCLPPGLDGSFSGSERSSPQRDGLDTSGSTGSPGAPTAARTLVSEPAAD

[2] = target: Sphingosine 1-phosphate receptor 3 (Homo sapiens, UniProt Q99500); assay: Late stage counterscreen assay for S1P4 antagonists: Fluorescence dose response cell-based screening assay for antagonists of the Sphingosine 1-Phosphate Receptor 3 (S1P3). [Related pubchem assays (depositor defined):AID1510, AID1524, AID1692, AID1853, AID2332, AID489009, AID489017]; assay type: functional
Chain of Sphingosine 1-phosphate receptor 3 (Q99500 whole entry): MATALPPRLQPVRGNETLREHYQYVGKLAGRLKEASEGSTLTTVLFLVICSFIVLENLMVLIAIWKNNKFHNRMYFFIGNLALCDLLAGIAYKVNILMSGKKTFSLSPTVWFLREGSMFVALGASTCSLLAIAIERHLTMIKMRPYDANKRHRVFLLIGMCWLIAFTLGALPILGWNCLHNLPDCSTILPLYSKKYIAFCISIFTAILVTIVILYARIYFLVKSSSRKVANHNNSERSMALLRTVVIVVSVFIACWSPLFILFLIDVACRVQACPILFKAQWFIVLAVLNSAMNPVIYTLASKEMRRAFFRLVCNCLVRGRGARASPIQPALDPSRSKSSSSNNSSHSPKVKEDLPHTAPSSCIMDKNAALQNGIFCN

[3] = target: Sphingosine 1-phosphate receptor 1 (Homo sapiens, UniProt P21453); assay: Late stage counterscreen assay for S1P4 antagonists: Fluorescence dose response cell-based screening assay for antagonists of the Sphingosine 1-Phosphate Receptor 1 (S1P1). [Related pubchem assays (depositor defined):AID1510, AID1524, AID1692, AID1853, AID2332, AID489009, AID489017]; assay type: functional
Chain of Sphingosine 1-phosphate receptor 1 (P21453 whole entry): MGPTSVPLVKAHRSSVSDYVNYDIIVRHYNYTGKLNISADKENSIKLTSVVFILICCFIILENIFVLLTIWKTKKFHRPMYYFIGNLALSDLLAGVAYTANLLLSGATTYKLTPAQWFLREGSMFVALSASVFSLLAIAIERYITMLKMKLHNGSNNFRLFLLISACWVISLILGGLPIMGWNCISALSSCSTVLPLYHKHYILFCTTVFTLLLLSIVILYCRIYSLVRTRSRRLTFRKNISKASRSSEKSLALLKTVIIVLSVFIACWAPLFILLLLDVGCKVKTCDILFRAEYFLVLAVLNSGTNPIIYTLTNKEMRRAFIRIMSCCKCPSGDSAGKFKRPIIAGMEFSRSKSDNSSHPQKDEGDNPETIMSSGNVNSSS

[4] = target: Sphingosine 1-phosphate receptor 2 (Homo sapiens, UniProt O95136); assay: Late stage counterscreen assay for S1P4 antagonists: Fluorescence dose response cell-based screening assay for antagonists of the Sphingosine 1-Phosphate Receptor 2 (S1P2). [Related pubchem assays (depositor defined):AID1510, AID1524, AID1692, AID1853, AID2332, AID489009, AID489017]; assay type: functional
Cytochrome P450 2C19 = Cytochrome P450 2C19 (Homo sapiens, UniProt P33261); assay: Cytochrome panel assay with activity outcomes. Panel member name: p450-cyp2c19 Compounds with AC50 equal or less than 10 uM are considered active; assay type: functional
Chain of Cytochrome P450 2C19 (P33261 whole entry): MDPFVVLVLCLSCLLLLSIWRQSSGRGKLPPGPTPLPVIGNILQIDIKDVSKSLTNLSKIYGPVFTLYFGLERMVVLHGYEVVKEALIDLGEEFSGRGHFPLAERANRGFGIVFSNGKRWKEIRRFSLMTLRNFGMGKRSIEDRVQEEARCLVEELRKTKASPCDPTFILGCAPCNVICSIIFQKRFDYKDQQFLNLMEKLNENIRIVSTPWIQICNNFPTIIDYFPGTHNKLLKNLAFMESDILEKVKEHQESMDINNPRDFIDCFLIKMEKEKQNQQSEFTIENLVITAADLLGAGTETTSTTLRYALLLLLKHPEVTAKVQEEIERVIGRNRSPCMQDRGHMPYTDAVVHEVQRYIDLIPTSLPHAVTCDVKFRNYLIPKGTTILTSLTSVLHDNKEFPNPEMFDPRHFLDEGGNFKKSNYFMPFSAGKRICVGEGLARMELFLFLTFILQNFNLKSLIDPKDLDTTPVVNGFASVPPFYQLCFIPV

Cytochrome P450 3A4 = Cytochrome P450 3A4 (Homo sapiens, UniProt P08684);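 further: CYP3A4 tested as one member of a cytochrome P450 panel screen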
Chain of Cytochrome P450 3A4 (P08684 whole entry): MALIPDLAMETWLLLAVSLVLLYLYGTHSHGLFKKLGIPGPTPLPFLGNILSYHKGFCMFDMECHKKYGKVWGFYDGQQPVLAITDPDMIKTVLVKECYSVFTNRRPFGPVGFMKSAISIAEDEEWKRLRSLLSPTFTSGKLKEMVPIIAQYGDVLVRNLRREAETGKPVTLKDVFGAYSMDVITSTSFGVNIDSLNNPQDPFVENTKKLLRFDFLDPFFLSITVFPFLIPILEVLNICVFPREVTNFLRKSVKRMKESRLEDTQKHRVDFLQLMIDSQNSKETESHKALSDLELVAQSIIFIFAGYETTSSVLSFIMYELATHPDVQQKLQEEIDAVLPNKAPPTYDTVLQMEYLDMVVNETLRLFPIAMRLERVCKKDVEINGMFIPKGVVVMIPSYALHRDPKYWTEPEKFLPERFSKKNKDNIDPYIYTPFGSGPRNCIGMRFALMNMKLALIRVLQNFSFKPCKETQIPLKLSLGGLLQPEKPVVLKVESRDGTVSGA

Cytochrome P450 2D6 = Cytochrome P450 2D6 (Homo sapiens, UniProt P10635);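 further: CYP2D6 member of a cytochrome P450 panel assay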
Chain of Cytochrome P450 2D6 (P10635 whole entry): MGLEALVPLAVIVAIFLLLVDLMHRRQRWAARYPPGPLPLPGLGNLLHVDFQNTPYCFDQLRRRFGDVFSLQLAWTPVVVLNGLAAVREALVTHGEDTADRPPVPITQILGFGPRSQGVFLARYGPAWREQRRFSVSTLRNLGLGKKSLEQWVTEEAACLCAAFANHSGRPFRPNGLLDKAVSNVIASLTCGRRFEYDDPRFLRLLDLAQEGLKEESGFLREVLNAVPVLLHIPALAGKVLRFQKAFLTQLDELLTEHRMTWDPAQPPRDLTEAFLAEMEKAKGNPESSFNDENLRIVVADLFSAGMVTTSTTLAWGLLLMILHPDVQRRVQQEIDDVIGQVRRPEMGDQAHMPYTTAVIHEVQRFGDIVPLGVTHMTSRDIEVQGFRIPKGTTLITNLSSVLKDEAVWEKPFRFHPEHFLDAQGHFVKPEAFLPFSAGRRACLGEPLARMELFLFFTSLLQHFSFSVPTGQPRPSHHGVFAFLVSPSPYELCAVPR

Cytochrome P450 1A2 = target: T1, Cytochrome P450 1A2 (Homo sapiens, UniProt P05177);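 further: PubChem cytochrome P450 panel assay, CYP1A2 panel member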
T1 sequence (P05177 whole entry): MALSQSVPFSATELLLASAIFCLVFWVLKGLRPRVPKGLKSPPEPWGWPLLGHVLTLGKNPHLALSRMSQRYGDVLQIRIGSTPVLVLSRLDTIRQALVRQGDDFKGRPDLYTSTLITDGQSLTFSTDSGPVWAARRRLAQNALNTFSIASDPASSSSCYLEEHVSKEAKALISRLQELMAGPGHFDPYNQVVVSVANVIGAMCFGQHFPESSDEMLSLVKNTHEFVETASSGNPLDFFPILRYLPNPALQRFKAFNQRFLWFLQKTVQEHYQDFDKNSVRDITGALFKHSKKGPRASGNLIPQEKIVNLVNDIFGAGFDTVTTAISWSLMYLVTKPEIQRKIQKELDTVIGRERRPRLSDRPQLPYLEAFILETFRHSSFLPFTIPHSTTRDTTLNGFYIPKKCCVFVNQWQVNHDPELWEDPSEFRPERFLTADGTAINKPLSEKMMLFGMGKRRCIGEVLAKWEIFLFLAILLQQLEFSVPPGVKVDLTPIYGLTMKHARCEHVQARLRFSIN

Cytochrome P450 2C9 = Cytochrome P450 2C9 (Homo sapiens, UniProt P11712)
Chain of Cytochrome P450 2C9 (P11712 whole entry): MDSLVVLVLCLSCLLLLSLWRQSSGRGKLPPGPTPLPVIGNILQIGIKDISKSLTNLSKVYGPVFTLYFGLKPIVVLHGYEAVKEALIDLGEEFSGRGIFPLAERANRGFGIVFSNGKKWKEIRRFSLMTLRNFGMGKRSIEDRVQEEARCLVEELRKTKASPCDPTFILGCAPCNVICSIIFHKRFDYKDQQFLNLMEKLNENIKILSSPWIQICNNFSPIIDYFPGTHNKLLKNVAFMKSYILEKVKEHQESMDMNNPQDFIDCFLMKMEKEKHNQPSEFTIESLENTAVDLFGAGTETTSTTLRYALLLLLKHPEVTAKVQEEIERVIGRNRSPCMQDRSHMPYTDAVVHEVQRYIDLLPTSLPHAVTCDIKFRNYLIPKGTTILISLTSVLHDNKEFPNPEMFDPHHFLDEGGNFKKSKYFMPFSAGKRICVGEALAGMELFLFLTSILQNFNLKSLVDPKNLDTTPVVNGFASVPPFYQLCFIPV

[5] = target: T2, Short transient receptor potential channel 4 (Mus musculus, UniProt Q9QUQ5); assay: mouse TRPC4 channel inhibitors, dose response, cell-based, HEK293 TRPC4/mu-opioid, Fluo-4 calcium (AID 434942); assay type: functional;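 further: potency of inhibitors blocking the TRPC4 calcium response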
T2 sequence (Q9QUQ5 whole entry): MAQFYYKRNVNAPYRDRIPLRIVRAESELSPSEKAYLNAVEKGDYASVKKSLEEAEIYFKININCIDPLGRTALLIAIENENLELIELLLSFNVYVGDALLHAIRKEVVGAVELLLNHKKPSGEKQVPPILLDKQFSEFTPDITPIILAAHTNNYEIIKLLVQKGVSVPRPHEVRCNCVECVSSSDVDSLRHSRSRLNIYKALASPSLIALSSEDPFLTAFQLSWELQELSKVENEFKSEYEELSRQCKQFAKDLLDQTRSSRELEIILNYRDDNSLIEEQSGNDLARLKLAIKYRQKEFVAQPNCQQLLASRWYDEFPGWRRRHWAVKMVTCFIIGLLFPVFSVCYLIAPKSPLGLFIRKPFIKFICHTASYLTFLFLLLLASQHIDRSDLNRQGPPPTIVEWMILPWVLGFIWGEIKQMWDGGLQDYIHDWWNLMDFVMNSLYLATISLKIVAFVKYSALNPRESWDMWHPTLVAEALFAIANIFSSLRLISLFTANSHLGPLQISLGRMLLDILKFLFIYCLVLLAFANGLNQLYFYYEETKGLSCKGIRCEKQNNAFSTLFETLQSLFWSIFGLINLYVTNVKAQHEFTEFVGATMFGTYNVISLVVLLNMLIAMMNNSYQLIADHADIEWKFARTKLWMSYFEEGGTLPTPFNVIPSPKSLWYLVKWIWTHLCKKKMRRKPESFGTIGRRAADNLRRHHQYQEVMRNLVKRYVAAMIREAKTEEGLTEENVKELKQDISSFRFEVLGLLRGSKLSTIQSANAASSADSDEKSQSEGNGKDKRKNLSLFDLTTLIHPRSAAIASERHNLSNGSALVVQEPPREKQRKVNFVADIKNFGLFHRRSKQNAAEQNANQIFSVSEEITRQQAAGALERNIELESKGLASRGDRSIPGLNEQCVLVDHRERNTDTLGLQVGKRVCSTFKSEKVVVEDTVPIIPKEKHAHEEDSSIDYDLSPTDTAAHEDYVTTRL

[6] = target: Intestinal-type alkaline phosphatase (Mus musculus, UniProt P24822); assay: PubChem AID 488875; assay type: functional
Chain of Intestinal-type alkaline phosphatase (Mus musculus, UniProt P24822) (P24822 whole entry): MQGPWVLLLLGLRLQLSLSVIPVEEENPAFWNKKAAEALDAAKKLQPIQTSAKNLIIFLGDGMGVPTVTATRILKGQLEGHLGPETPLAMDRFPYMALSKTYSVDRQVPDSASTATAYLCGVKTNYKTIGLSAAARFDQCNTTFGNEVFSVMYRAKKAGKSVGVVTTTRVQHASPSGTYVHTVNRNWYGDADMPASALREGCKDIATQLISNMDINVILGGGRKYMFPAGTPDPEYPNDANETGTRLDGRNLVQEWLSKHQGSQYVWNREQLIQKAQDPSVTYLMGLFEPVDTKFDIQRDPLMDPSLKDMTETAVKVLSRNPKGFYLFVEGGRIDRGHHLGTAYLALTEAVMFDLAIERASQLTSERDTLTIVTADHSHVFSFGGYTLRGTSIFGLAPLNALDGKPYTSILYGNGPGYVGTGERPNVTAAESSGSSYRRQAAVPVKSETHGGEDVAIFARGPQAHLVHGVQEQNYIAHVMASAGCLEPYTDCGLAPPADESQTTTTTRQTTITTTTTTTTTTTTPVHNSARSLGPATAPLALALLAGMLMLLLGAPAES

[7] = target: T3, Intestinal-type alkaline phosphatase (Homo sapiens, UniProt P09923); assay: human intestinal alkaline phosphatase activators, dose response, biochemical, luminescence, uHTS hits (AID 463120); assay type: functional
T3 sequence (P09923 whole entry): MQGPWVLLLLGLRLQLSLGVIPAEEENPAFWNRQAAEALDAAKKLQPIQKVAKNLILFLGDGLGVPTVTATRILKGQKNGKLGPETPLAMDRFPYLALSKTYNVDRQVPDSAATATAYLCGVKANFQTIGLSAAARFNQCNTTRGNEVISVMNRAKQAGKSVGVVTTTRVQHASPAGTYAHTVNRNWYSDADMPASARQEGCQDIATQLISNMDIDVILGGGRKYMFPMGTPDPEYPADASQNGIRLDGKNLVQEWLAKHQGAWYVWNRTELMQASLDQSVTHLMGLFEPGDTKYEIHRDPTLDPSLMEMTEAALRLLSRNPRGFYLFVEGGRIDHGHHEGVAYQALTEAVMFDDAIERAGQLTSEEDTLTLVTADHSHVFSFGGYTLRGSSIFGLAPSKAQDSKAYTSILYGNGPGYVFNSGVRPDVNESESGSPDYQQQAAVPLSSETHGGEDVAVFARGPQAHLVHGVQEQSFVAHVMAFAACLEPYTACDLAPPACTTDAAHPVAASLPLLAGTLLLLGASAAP

[8] = target: T3, Intestinal-type alkaline phosphatase; assay: human IAP activators, dose response, biochemical, luminescent, uHTS hits, set 2 (AID 488817); assay type: functional;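 further: potency of activators that raise enzyme activity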
[9] = target: T4, Alkaline phosphatase, tissue-nonspecific isozyme (Homo sapiens, UniProt P05186); assay: TNAP enzyme activators, dose response, selectivity assay for human IAP activator project, biochemical, TNAP isozyme, human IAP uHTS hits (AID 488886); assay type: functional;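 further: potency of compounds raising TNAP activity as a selectivity check on IAP activators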
T4 sequence (P05186 whole entry): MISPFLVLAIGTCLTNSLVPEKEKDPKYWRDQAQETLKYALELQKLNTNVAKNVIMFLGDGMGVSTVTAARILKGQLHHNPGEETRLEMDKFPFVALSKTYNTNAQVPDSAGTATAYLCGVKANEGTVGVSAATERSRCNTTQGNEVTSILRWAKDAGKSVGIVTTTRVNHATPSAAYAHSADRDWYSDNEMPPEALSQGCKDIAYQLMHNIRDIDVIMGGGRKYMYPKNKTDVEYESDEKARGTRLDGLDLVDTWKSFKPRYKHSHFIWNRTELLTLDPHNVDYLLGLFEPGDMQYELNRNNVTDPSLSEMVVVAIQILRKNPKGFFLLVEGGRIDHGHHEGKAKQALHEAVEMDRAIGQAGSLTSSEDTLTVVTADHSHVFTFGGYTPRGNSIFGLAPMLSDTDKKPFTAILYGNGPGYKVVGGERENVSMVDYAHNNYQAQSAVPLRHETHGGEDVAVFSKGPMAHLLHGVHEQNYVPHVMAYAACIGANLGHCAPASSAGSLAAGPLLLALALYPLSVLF

Trypsin = Trypsin (Sus scrofa, UniProt P00761); assay: porcine trypsin inhibitors, dose response, selectivity assay for Rce1 protease inhibitor project, biochemical, quenched peptide fluorescence, cherry-pick (AID 488789)
Chain of Trypsin (P00761 whole entry): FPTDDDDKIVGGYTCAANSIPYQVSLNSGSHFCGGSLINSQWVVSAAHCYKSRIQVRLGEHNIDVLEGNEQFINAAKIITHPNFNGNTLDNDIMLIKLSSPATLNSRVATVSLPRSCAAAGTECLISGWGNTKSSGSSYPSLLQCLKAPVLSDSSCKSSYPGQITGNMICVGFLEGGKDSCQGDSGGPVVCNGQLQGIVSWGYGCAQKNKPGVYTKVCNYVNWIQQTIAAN

CAAX prenyl protease 1 = CAAX prenyl protease 1 (Saccharomyces cerevisiae S288c, UniProt P47154); assay: Ste24 protease inhibitors, dose response, biochemical, S. cerevisiae, plate reader, cherry-pick (AID 488815)
Chain of CAAX prenyl protease 1 (P47154 whole entry): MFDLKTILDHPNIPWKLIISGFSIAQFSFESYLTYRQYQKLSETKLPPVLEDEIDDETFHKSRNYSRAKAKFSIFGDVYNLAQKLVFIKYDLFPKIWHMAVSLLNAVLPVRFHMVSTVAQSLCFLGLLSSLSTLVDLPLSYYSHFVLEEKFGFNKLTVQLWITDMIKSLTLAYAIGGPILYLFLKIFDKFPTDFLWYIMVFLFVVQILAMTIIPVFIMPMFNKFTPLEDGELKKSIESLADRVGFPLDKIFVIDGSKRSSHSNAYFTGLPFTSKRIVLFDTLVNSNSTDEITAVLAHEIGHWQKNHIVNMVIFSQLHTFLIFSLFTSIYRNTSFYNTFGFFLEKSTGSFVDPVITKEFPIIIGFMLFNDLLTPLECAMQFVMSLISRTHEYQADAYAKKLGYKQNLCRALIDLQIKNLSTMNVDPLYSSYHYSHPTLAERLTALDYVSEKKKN

IC50 [1]: > 25 µM (inactive)
IC50 [2]: > 25 µM (inactive)
IC50 [3]: > 25 µM (inactive)
IC50 [4]: > 25 µM (inactive)
SMILES: Cc1cccc(C)c1NC(=O)c1ccc(-c2cccc(Cl)c2)o1

AC50 (Cytochrome P450 2C19): inconclusive
AC50 (Cytochrome P450 3A4): 3.98 µM (inconclusive)
AC50 (Cytochrome P450 2D6): inconclusive
AC50 (Cytochrome P450 1A2): inconclusive
AC50 (Cytochrome P450 2C9): inconclusive
SMILES: FC(F)(F)c1cc(CN2CC[C@@]3(CCCNC3)C2)cc(C(F)(F)F)c1

EC50 [5]: 0.473 µM (active)
EC50 [6]: 80.6 µM (active)
EC50 [7]: 59.9 µM (active)
EC50 [8]: 80.1 µM (active)
EC50 [9]: 74.4 µM (active)
SMILES: CCOc1ccccc1CN1CCC(n2nccc2NC(=O)CCc2ccccc2)CC1

AC50 (Trypsin): 13.1 µM (active)
AC50 (CAAX prenyl protease 1): 6.24 µM (active)
SMILES: CCN(CC)CCCNC(=O)CCc1c(C)n(CC)c2cc(-c3ccccc3OC)nn2c1=O
